Experimental data taken from patent US20260035387A1 (BIOGEN MA INC., priority 2022, published 2026).

Tested on: mutant Huntington (HTT) protein
Assay: HTT Mutant HTRF iPSC assay (mHTT protein lowering)
Type: cell-based
Settings: human iPSC derived from a HTT patient with a poly-Q49 mutation

| Compound | IC50 |
| --- | --- |
| Cc1cn2nc(NC(=O)c3cc4ccc(N5CC[C@@H](N(C)C)C5)nc4s3)cc(C)c2n1 [Compound 56, (R)-6-(3-(dimethylamino)pyrrolidin-1-yl)-N-(2,8-dimethylimidazo[1,2-b]pyridazin-6-yl)thieno[2,3-b]pyridine-2-carboxamide] | 1000 to 9000 nM |
| Cc1cn2cc(NC(=O)c3cc4ccc(N5CCCC5)nc4s3)nc(C)c2n1 [Compound 57, N-(2,8-dimethylimidazo[1,2-a]pyrazin-6-yl)-6-(pyrrolidin-1-yl)thieno[2,3-b]pyridine-2-carboxamide] | 1000 to 9000 nM |
| CN(C)C1CCN(c2ccc3cc(C(=O)Nc4ccc5c(c4)n(C)c(=O)n5C)sc3n2)C1 (stereo not drawn) [Compound 58, N-(1,3-dimethyl-2-oxo-2,3-dihydro-1H-benzo[d]imidazol-5-yl)-6-(3-(dimethylamino)pyrrolidin-1-yl)thieno[2,3-b]pyridine-2-carboxamide] | 1000 to 9000 nM |
| CN(C)C1CCN(c2ccc3cc(C(=O)Nc4ccc5sc(=O)n(C)c5c4)sc3n2)C1 (stereo not drawn) [Compound 59, 6-(3-(dimethylamino)pyrrolidin-1-yl)-N-(3-methyl-2-oxo-2,3-dihydrobenzo[d]thiazol-5-yl)thieno[2,3-b]pyridine-2-carboxamide] | 1000 to 9000 nM |
| CN(C)C1CCN(c2ccc3cc(C(=O)Nc4cnn5c(C(F)(F)F)ccnc45)sc3n2)C1 (stereo not drawn) [Compound 60, 6-(3-(dimethylamino)pyrrolidin-1-yl)-N-(7-(trifluoromethyl)pyrazolo[1,5-a]pyrimidin-3-yl)thieno[2,3-b]pyridine-2-carboxamide] | 1000 to 9000 nM |
| CC(C)n1ncc2ccc(NC(=O)c3cc4ccc(N5CCC(N(C)C)C5)nc4s3)cc21 (stereo not drawn) [Compound 61, 6-(3-(dimethylamino)pyrrolidin-1-yl)-N-(1-isopropyl-1H-indazol-6-yl)thieno[2,3-b]pyridine-2-carboxamide] | 1000 to 9000 nM |
| CN(C)C1CCN(c2ccc3cc(C(=O)Nc4ccc5cncn5c4)sc3n2)C1 (stereo not drawn) [Compound 62, 6-(3-(dimethylamino)pyrrolidin-1-yl)-N-(imidazo[1,5-a]pyridin-6-yl)thieno[2,3-b]pyridine-2-carboxamide] | 1000 to 9000 nM |
| CN(C)C1CCN(c2ccc3cc(C(=O)Nc4ccc5nsnc5c4)sc3n2)C1 (stereo not drawn) [Compound 63, N-(benzo[c][1,2,5]thiadiazol-5-yl)-6-(3-(dimethylamino)pyrrolidin-1-yl)thieno[2,3-b]pyridine-2-carboxamide] | 1000 to 9000 nM |
| CN(C)C1CCN(c2ccc3cc(C(=O)Nc4nc5cnccn5n4)sc3n2)C1 (stereo not drawn) [Compound 64, N-([1,2,4]triazolo[1,5-a]pyrazin-2-yl)-6-(3-(dimethylamino)pyrrolidin-1-yl)thieno[2,3-b]pyridine-2-carboxamide] | 1000 to 9000 nM |
| CN(C)C1CCN(c2ccc3cc(C(=O)Nc4cc(F)c5nn(C)cc5c4)sc3n2)C1 (stereo not drawn) [Compound 65, 6-(3-(dimethylamino)pyrrolidin-1-yl)-N-(7-fluoro-2-methyl-2H-indazol-5-yl)thieno[2,3-b]pyridine-2-carboxamide] | < 100 nM |
| Cc1cn2cc(NC(=O)c3cc4ccc(N5C[C@@H]6CCN(C)[C@@H]6C5)nc4s3)cc(F)c2n1 [Compound 66, 6-[(3aS,6aS)-1-methyl-2,3,3a,4,6,6a-hexahydropyrrolo[3,4-b]pyrrol-5-yl]-N-(8-fluoro-2-methyl-imidazo[1,2-a]pyridin-6-yl)thieno[2,3-b]pyridine-2-carboxamide] | < 100 nM |
| Cc1cn2cc(NC(=O)c3cc4ccc(N5C[C@@H](C)N(C)[C@@H](C)C5)nc4s3)cc(F)c2n1 [Compound 69, N-(8-fluoro-2-methylimidazo[1,2-a]pyridin-6-yl)-6-((3R,5S)-3,4,5-trimethylpiperazin-1-yl)thieno[2,3-b]pyridine-2-carboxamide] | < 100 nM |
| Cc1cn2cc(NC(=O)c3cc4ccc(N5C[C@H]6CCN(C)[C@H]6C5)nc4s3)cc(F)c2n1 [Compound 70, N-(8-fluoro-2-methylimidazo[1,2-a]pyridin-6-yl)-6-((3aR,6aR)-1-methylhexahydropyrrolo[3,4-b]pyrrol-5(1H)-yl)thieno[2,3-b]pyridine-2-carboxamide] | < 100 nM |
| Cc1nc2c(F)cc(NC(=O)c3cc4ccc(N5CCC(N(C)C)C5)nc4s3)cc2o1 (stereo not drawn) [Compound 71, 6-(3-(dimethylamino)pyrrolidin-1-yl)-N-(4-fluoro-2-methylbenzo[d]oxazol-6-yl)thieno[2,3-b]pyridine-2-carboxamide] | < 100 nM |
| COc1cc(NC(=O)c2cc3ccc(N4CCC(N(C)C)C4)nc3s2)cn2cc(C)nc12 (stereo not drawn) [Compound 72, 6-(3-(dimethylamino)pyrrolidin-1-yl)-N-(8-methoxy-2-methylimidazo[1,2-a]pyridin-6-yl)thieno[2,3-b]pyridine-2-carboxamide] | 100 to 1000 nM |
| Cc1cn2cc(NC(=O)c3cc4ccc(N5CCC(N(C)C)C5)nc4s3)cc(C)c2n1 (stereo not drawn) [Compound 73, 6-(3-(dimethylamino)pyrrolidin-1-yl)-N-(2,8-dimethylimidazo[1,2-a]pyridin-6-yl)thieno[2,3-b]pyridine-2-carboxamide] | 1000 to 9000 nM |
| COc1cc2nn(C)cc2cc1NC(=O)c1cc2ccc(N3CCC(N(C)C)C3)nc2s1 (stereo not drawn) [Compound 74, 6-(3-(dimethylamino)pyrrolidin-1-yl)-N-(6-methoxy-2-methyl-2H-indazol-5-yl)thieno[2,3-b]pyridine-2-carboxamide] | 100 to 1000 nM |

| Compound | IC50 |
| --- | --- |
| Cc1cn2cc(NC(=O)c3cc4ccc(N5CCNCC5)nc4s3)cc(F)c2n1 [Compound 75, N-(8-fluoro-2-methylimidazo[1,2-a]pyridin-6-yl)-6-(piperazin-1-yl)thieno[2,3-b]pyridine-2-carboxamide] | < 100 nM |
| Cc1cn2cc(NC(=O)c3cc4ccc(N5CC6(CCCN(C)C6)C5)nc4s3)cc(F)c2n1 [Compound 76, N-(8-fluoro-2-methylimidazo[1,2-a]pyridin-6-yl)-6-(6-methyl-2,6-diazaspiro[3.5]nonan-2-yl)thieno[2,3-b]pyridine-2-carboxamide] | 100 to 1000 nM |
| Cc1cn2cc(NC(=O)c3cc4ccc(N5CCN(C)CC5)nc4s3)cc(F)c2n1 [Compound 77, N-(8-fluoro-2-methylimidazo[1,2-a]pyridin-6-yl)-6-(4-methylpiperazin-1-yl)thieno[2,3-b]pyridine-2-carboxamide] | < 100 nM |
| Cc1cn2cc(NC(=O)c3cc4ccc(N5CCC(C6(N)CC6)C5)nc4s3)cc(F)c2n1 (stereo not drawn) [Compound 78, 6-(3-(1-aminocyclopropyl)pyrrolidin-1-yl)-N-(8-fluoro-2-methylimidazo[1,2-a]pyridin-6-yl)thieno[2,3-b]pyridine-2-carboxamide] | < 100 nM |
| Cc1cn2cc(NC(=O)c3cc4ccc(N5CCN(C6CC6)CC5)nc4s3)cc(F)c2n1 [Compound 79, 6-(4-cyclopropylpiperazin-1-yl)-N-(8-fluoro-2-methylimidazo[1,2-a]pyridin-6-yl)thieno[2,3-b]pyridine-2-carboxamide] | < 100 nM |
| Cc1cn2cc(NC(=O)c3cc4ccc(N5C[C@H]6CNC[C@H]6C5)nc4s3)cc(F)c2n1 [Compound 80, N-(8-fluoro-2-methylimidazo[1,2-a]pyridin-6-yl)-6-((3aR,6aS)-hexahydropyrrolo[3,4-c]pyrrol-2(1H)-yl)thieno[2,3-b]pyridine-2-carboxamide] | 100 to 1000 nM |
| Cc1cn2cc(NC(=O)c3cc4ccc(C5=CC6CCC(C5)N6)nc4s3)cc(F)c2n1 (stereo not drawn) [Compound 83, 6-(8-azabicyclo[3.2.1]oct-2-en-3-yl)-N-(8-fluoro-2-methylimidazo[1,2-a]pyridin-6-yl)thieno[2,3-b]pyridine-2-carboxamide] | < 100 nM |
| Cc1cn2cc(NC(=O)c3cc4ccc(C5=CCCNC5)nc4s3)cc(F)c2n1 [Compound 84, N-(8-fluoro-2-methyl-imidazo[1,2-a]pyridin-6-yl)-6-(1,2,3,6-tetrahydropyridin-5-yl)thieno[2,3-b]pyridine-2-carboxamide] | < 100 nM |
| Cc1cn2cc(NC(=O)c3cc4ccc(C5CCNCC5)nc4s3)cc(F)c2n1 [Compound 85, N-(8-fluoro-2-methylimidazo[1,2-a]pyridin-6-yl)-6-(piperidin-4-yl)thieno[2,3-b]pyridine-2-carboxamide] | < 100 nM |
| Cc1cn2cc(NC(=O)c3cc4ncc(N5CCC(N(C)C)C5)cc4o3)cc(F)c2n1 (stereo not drawn) [Compound 86, 6-[3-(dimethylamino)pyrrolidin-1-yl]-N-(8-fluoro-2-methyl-imidazo[1,2-a]pyridin-6-yl)furo[3,2-b]pyridine-2-carboxamide] | 100 to 1000 nM |
| COc1cc2nn(C)cc2cc1NC(=O)c1nc2ccc(N3CCC4(CCCN4C)C3)nc2s1 (stereo not drawn) [Compound 87, N-(6-methoxy-2-methyl-2H-indazol-5-yl)-5-(1-methyl-1,7-diazaspiro[4.4]nonan-7-yl)thiazolo[5,4-b]pyridine-2-carboxamide] | < 100 nM |
| COc1cc2nn(C)cc2cc1NC(=O)c1nc2ccc(N3CCC4(CN(C)C4)C3)nc2s1 [Compound 88, N-(6-methoxy-2-methyl-2H-indazol-5-yl)-5-(2-methyl-2,6-diazaspiro[3.4]octan-6-yl)thiazolo[5,4-b]pyridine-2-carboxamide] | < 100 nM |
| Cc1cn2cc(NC(=O)c3nc4ccc(N5CC[C@@H](N(C)C)C5)nc4s3)cc(F)c2n1 [Compound 89, 5-[(3R)-3-(dimethylamino)pyrrolidin-1-yl]-N-(8-fluoro-2-methyl-imidazo[1,2-a]pyridin-6-yl)thiazolo[5,4-b]pyridine-2-carboxamide] | < 100 nM |
| COc1cc2nn(C)cc2cc1NC(=O)c1nc2ccc(N3C[C@@H]4CN(C)C[C@@H]43)nc2s1 [Compound 90, N-(6-methoxy-2-methyl-2H-indazol-5-yl)-5-((1S,5R)-3-methyl-3,6-diazabicyclo[3.2.0]heptan-6-yl)thiazolo[5,4-b]pyridine-2-carboxamide] | < 100 nM |
| COc1c(NC(=O)c2nc3ccc(N4CC[C@H](N(C)C)C4)nc3s2)cn2cc(C)nc2c1F [Compound 91, (S)-5-(3-(dimethylamino)pyrrolidin-1-yl)-N-(8-fluoro-7-methoxy-2-methylimidazo[1,2-a]pyridin-6-yl)thiazolo[5,4-b]pyridine-2-carboxamide] | < 100 nM |
| Cc1cn2cc(NC(=O)c3nc4ccc(N5CC[C@H](N(C)C)C5)nc4s3)cc(F)c2n1 [Compound 93, (S)-5-(3-(dimethylamino)pyrrolidin-1-yl)-N-(8-fluoro-2-methylimidazo[1,2-a]pyridin-6-yl)thiazolo[5,4-b]pyridine-2-carboxamide] | < 100 nM |
